Holding throughout (assay type): in vivo
In data set [1] the test system is Abutilon theophrasti (ABUTH). The data set is described as follows: Herbicidal pre-emergence action, section A (Table A1). Conditions: Abutilon theophrasti, pre-emergence, 504 h; application rate 1280 g/ha; visual grading after ca. 3 weeks vs untreated controls; read-out: pre-emergence activity against ABUTH in %. The procedure, abridged: (§1)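 Sandy loam pots, seeds covered with soil, treated on the soil surface with aqueous WP or EC preparations containing 0.5% additive (600 l/ha). Visual damage rating after ca. 3 weeks in greenhouse; scale 0% (as control) to 100% (plants died off).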

For data set [2], the system named is Echinochloa crus-galli (ECHCG). The data set is described as follows: Herbicidal pre-emergence action, section A (Table A3). Conditions: Echinochloa crus-galli, pre-emergence, 504 h; application rate 1280 g/ha; visual grading after ca. 3 weeks vs untreated controls; read-out: pre-emergence activity against ECHCG in %. The procedure, abridged: as §1
The test system of data set [3] is Amaranthus retroflexus (AMARE). Put plainly: Herbicidal pre-emergence action, section A (Table A11). Conditions: Amaranthus retroflexus, 504 h, application rate 320 g/ha, read-out: pre-emergence activity against AMARE in %. The essentials:
as §1

Data set [4] concerns Digitaria sanguinalis (DIGSA). Put plainly: Herbicidal post-emergence action, section B (Table B12). Conditions: Digitaria sanguinalis, post-emergence, 504 h; application rate 1280 g/ha; visual rating about 3 weeks after treatment vs untreated controls; read-out: post-emergence activity against DIGSA in %. The procedure, abridged: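 Post-emergence greenhouse test. One-leaf stage; WP or EC plus 0.5% additive; 600 liters per hectare water volume; visual % rating at ~3 weeks relative to untreated plants.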

Data set [5] concerns Echinochloa crus-galli (ECHCG). Put plainly: Herbicidal pre-emergence action, section C (Table C3). Conditions: Echinochloa crus-galli, pre-emergence, 504 h; application rate 320 g/ha; visual grading after ca. 3 weeks vs untreated controls; read-out: pre-emergence activity against ECHCG in %. The essentials:
(§2)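 Visual damage rating at ca. 3 weeks relative to untreated controls, expressed as % effect (100% = plants died, 0% = like controls). Pre-emergence treatment: WP or EC formulations applied to the soil surface over sown seeds in sandy loam, 600 l water/ha, 0.5% additive.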

The subject of another data set is Lolium rigidum (LOLRI). Put plainly: Herbicidal pre-emergence action, section C (Table C5). Conditions: Lolium rigidum, pre-emergence, 504 h; application rate 320 g/ha; visual grading after ca. 3 weeks; read-out: pre-emergence activity against LOLRI in %. The procedure, abridged: as §2
The next data set concerns Glycine max (GLXMA). Put plainly: Pre-emergence effects on crop plants, section D (Table D4). Conditions: application rate 320 g/ha; visual grading after ca. 3 weeks. The essentials:
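Read-out: visual percent injury versus untreated controls at ca. 3 weeks (0% as control, 100% dead). Treatment: aqueous WP/EC suspension or emulsion with 0.5% additive, 600 l/ha, on soil covering seeds in sandy loam, at 320 g/ha or below, under optimum greenhouse conditions.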

For a further data set, the system named is Oryza sativa (ORYZA). Put plainly: Post-emergence effects on crop plants, section F (Table F3). Conditions: Oryza sativa, 504 h, application rate 320 g/ha, read-out: post-emergence activity against ORYZA in %. The procedure, abridged:
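Visual % damage versus untreated controls (100% = plants died, 0% = as control), assessed ca. 3 weeks after post-emergence spraying. Greenhouse plants in sandy loam were treated at the single-leaf stage with WP/EC formulations, 0.5% additive, 600 l water/ha, at 320 g/ha or below.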

For `CC(=O)N1CSc2cc(Br)c(-c3ccccc3Cl)nc21` [Example I-055, 1-[6-bromo-5-(2-chlorophenyl)[1,3]thiazolo[4,5-b]pyridin-3(2H)-yl]ethanone], the pest or weed control at 1280 g/ha in data set [1] was found to be 90%; in data set [2], 100%; in data set [4], 90%. For the same compound, the pest or weed control at 320 g/ha was 90% in data set [3], 100% in data set [5] and 90% in the data set on Lolium rigidum (LOLRI). Besides, the “pre-emergence activity against GLXMA in % (crop plant damage)” value with Glycine max (GLXMA) is given as 20%. The percent crop plant damage at 320 g/ha in the data set with Oryza sativa (ORYZA) came to 0%.

The record behind these values is patent US20240381872A1, “SUBSTITUTED 2,3-DIHYDRO[1,3]THIAZOLO[4,5-B]PYRIDINES, SALTS THEREOF AND THEIR USE AS HERBICIDALLY ACTIVE SUBSTANCES” (BAYER AKTIENGESELLSCHAFT, priority 2021, published 2024).
